# From US20200190507A1, “Encoded Solid Phase Compound Library with Polynucleotide Based Barcoding” (The Scripps Research Institute, priority 2016, published 2020)
# “Also recorded” adds a separate entry of the source.
# Tested on: ATB serum IgGs
# Experiment: Antigen competition binding analysis with beads displaying 2-B
# Set-up: species or system human
# Settings: pooled ATB serum, beads displaying 2-B; CFP 250 μg/mL
substance,measurement,value
"recombinant Ag85A: Mycobacterium tuberculosis recombinant protein reference standard Ag85A, NR-49427",competition with 2-B for binding ATB serum IgGs,unreactive; also recorded: did not compete
"Ag85A: Mycobacterium tuberculosis purified native protein Ag85A (Rv3804c), Strain H37Rv",competition with 2-B for binding ATB serum IgGs,competed; also recorded: compete strongly
